Tests used:
[1] = target: T1, bacterial (E.coli) tRNA guanine transglycosylase (TGT) (Escherichia coli, UniProt P0A847); type: biochemical; conditions: TGT present; 4% denaturing PAGE (FIG. 3A, FIG. 7)
T1 construct: His6 (C); made in house; host or cells: E. coli BL21
Description: General labeling reaction procedure for fluorescence spectra and gel analysis. A 25 μL reaction was setup in a small eppendorf tube containing 100 nM RNA transcript, 50 μM PreQ1 analog, and 1μM TGT in TGT reaction buffer. 1 unit of RNaseln (Promega, Madison, Wis.) was added to each reaction to prevent degradation of the transcript. The reaction was allowed to proceed for 4 hours, after which the sample was cooled to 4° C. and either used directly or stored at −80° C. until further analyzed.
Gel Analysis of TGT reactions with PreQ1 analogs. […] After the reactions were complete, the RNA was precipitated by addition of 10% volume of 3M sodium acetate and 2.5 volumes 95% ethanol. The samples were then precipitated at −80° C. for 2 hours after which they were centrifuged at 16,100 g for 30 minutes at 4° C. The ethanol was carefully pipetted away and the RNA pellet was allowed to air dry for 10 minutes on the bench. The pellet was resuspended in 10 μL of 1X RNA loading dye (NEB, Ipswitch, Mass.), heated to 95° C. for 2 minutes, placed on ice for 20 minutes, and subsequently loaded into a freshly poured denaturing 4% polyacrylamide gel (4% polyacrylamide in 1X TBE buffer with 8% urea) and run at 120 V for approximately 2 hours until the xylene cyanol blue dye had reached the bottom of the gel. […]

[2] = tested on: mCherry-TAG RNA endogenously expressed in CHO cells; assay: Fixed cell labeling of endogenously expressed mCherry-TAG transcript; type: cell-based, Chinese hamster; conditions: 50 μM PreQ1-Cy7, with TGT and mCherry-TAG plasmid vs controls without (FIG. 4)
Description: Fixed Cell Labeling of Endogenously Expressed mCherry-ECY-A1 Transcript. Chinese Hamster Ovary (CHO) cells (CRL-9606, ATCC, Manassas, Va.) were cultured in Ham's F-12K media (Life Technologies, Carlsbad, Calif.) and kept under 20 passages from the ATCC standard line. CHO cells were plated at an initial density of 10,000 cells per well in a Nunc Lab-Tek 8 well chamber slide (Thermo Scientific, Waltham, Mass.). Cells were allowed to adhere overnight and washed with Opti-MEM media (Life Technologies, Carlsbad, Calif.) and subsequently transfected with […] of mCherry-TAG plasmid per well with 1.5 μL of Lipofectamine® 2000 (Life Technologies, Carlsbad, Calif.) in Opti-MEM as per manufacture's protocol. Control wells lacking transfection were treated and washed with Opti-MEM in the absence of DNA and lipofectamine®. After overnight transfection, the cells were washed twice with PBS (200 μL each) and fixed with 100 μL of a 3.7% paraformaldehyde in PBS solution for 10 minutes at room temperature. Cells were then permeabilized by treatment with 100 μL of 0.1% Triton X-100 in PBS for 20 minutes at room temperature and washed 2×200 μL with fresh PBS. Cells were then treated for four hours at 37° C. with 100 μL of TGT reaction buffer containing 50 μM PreQ1-Cy7 either with or without 10 μM TGT enzyme added. […] Images were subsequently analyzed and processed using ImageJ (NIH, rsbweb.nih.gov).

[3] = target: T1, bacterial (E.coli) tRNA guanine transglycosylase (TGT); assay: TGT-catalyzed incorporation of PreQ1 analogs into RNA oligonucleotide hairpins (LC / HRMS); type: biochemical
Description: General TGT reaction with RNA oligonucleotide hairpins TGT reaction conditions were adapted from a previously reported literature procedure.^1 An eppendorf tube containing 10 μM RNA oligonucleotide, 100 μM PreQ1 analog, and 10 μM TGT enzyme were prepared in a final volume of 50 μL of TGT reaction buffer. The reactions were incubated at 37° C. for a minimum of 2 hours. The reactions were halted by chilling samples to 4° C. or freezing at −80° C. until purified or analyzed.
Liquid chromatography and mass spectroscopy analysis of preQ1 modified RNA hairpins. Samples were first prepared according to the general procedure. Samples were allowed to react for 6 hours and frozen at −80° C. until analyzed (PreQ1-Biotin required 24 hours for completion). Samples were diluted 1:2 with milli-Q water and injected onto a clarity Oligo-MS column (Phenomenex, Torrance, Calif.) and analyzed by HPLC according to the following gradient: (A=Milli-Q water containing 20% hexafluoroisopropanol (HFIP) and 0.1% TEA, B=methanol), Initial conditions 95% A, 5% B, hold 2 min then a linear gradient starting at 2 min and ending at 10 min with 45% A, 55% B. Samples were monitored at 260 nm as well as either 505 nm or 700 nm as appropriate when fluorophore PreQ1 analogs were employed. HRMS samples were collected in negative ion mode and analyzed in a similar manner by combining the mass spectrum traces across the peak of interest. Raw mass spectrum were deconvoluted using MagTran software package v.

[4] = target: T2, streptavidin (Streptomyces avidinii, UniProt P22629); assay: Streptavidin gel shift of RNA hairpins modified with PreQ1-Biotin; type: binding; conditions: ECY-A1 vs ECY-A1ΔC, with and without TGT; 15% denaturing PAGE (FIG. 2C)
T2 construct: purchased Life Technologies
Description: Streptavidin gel shift of RNA hairpins. ECY-A1 RNA and ECY-A1ΔC was incubated in a mixture of 10 μM RNA, 100 μM preQ1-Biotin, and 1 μM TGT (omitted in control samples) in TGT reaction buffer at 37° C. for 24 hours. After the reactions were complete, the RNA was precipitated by addition of 10% volume of 3M sodium acetate and 2.5 volumes 95% ethanol and incubation at −20° C. overnight. After centrifugation at 4° C. (16,100 g, 30 min), the resulting RNA pellet was resuspended in water, and the concentration of RNA was quantified. The prepared RNA was then incubated in the presence of streptavidin (Life Technologies, Carlsbad, Calif.) at 37° C. for 1 hour in a mixture containing the following: 10 mM Tris (pH 8.1), 2.5 μM RNA, and 50 μM streptavidin. 1X RNA loading dye (NEB, Ipswitch, Mass.) was added to the sample (without heat denaturation) and samples were analyzed by 15% denaturing PAGE.

[5] = target: T3, streptavidin M-280 DYNABEADS (Streptomyces avidinii, UniProt P22629); assay: DYNABEADS streptavidin pull-down of PreQ1-Biotin modified transcripts; type: binding; conditions: mCherry-TAG vs mCherry-TAGΔC after TGT labeling (FIGS. 3C and 10)
T3 construct: purchased Life Technologies M280
Description: DYNABEADS® Streptavidin pull-down of PreQ1-Biotin modified transcripts. mCherry-TAG and mCherry-TAGΔC transcripts was incubated in a mixture of 1 μM RNA, 100 μM preQ1-Biotin, and 1 μM TGT (omitted in control samples) in TGT reaction buffer at 37° C. for 4 hours. 1 unit of RNAseIn (Promega, Madison, Wis.) was added to the reaction to prevent transcript degradation. Samples were drop dialyzed through 0.02 μm MF-Millipore membrane filter (Millipore, Billerica, Mass.) using 25 mL Milli-Q water and subsequently ethanol precipitated by addition of 10% volume of 3M sodium acetate and 2.5 volumes 95% ethanol and incubation at […] overnight. After centrifugation at 4° C. (16,100 g, 30 min), the resulting RNA pellet was resuspended in water, and the concentration of RNA was quantified.
Streptavidin M280 DYNABEADS® (Life Technologies, Carlsbad, Calif.) were washed according to manufacturer's instructions for RNA applications using binding and washing (B&W) buffer. Beads were blocked in B&W buffer with yeast tRNA (0.1 mg/100 uL of beads). Following the blocking step, beads were washed twice with B&W buffer. Pull down was then performed by incubation of 1 μg of prepared RNA with 10 uL of washed beads in B&W buffer at room temperature for 30 minutes with constant rotation. The beads were then washed three times with B&W buffer. […] Samples were then analyzed by 4% denaturing PAGE.

[6] = target: T1, bacterial (E.coli) tRNA guanine transglycosylase (TGT); assay: Fluorescence emission spectra of PreQ1-TO probe turn-on with mCherry-TAG RNA; type: biochemical
Description: Fluorescence emission spectra of PreQ1-TO probe turn-on with mCherry-TAG RNA. Fluorescence emission spectra were collected in a similar fashion to that described previously for the short RNA hairpins. 25 μL reactions were setup with 10 μM TGT enzyme, 20 μM PreQ1-TO, and 100 nM transcript RNA and incubated at 37° C. for 2 hours. Samples were then diluted 30-fold and measured under the same conditions and parameters as that of the short hairpins.

[7] = target: T1, bacterial (E.coli) tRNA guanine transglycosylase (TGT); assay: Fluorescence emission spectra of PreQ1-TO probe turn-on with ECY-A1 hairpin; type: biochemical; conditions: RNA hairpin ECY-A1; normalized to PreQ1-TO in the absence of RNA and TGT (FIG. 2B)
Description: Fluorescence emission spectra of PreQ1-TO probe turn-on with ECY-A1 hairpin. Samples of ECY-A1, ECY-A1ΔC, and ECY-X1 were first prepared in a similar fashion to the general protocol except only 20 μM PreQ1-TO was employed to avoid non-specific binding to the hairpins. Samples were allowed to react for 2 hours, verified to be at completion by HPLC, and diluted 30-fold into TGT reaction buffer. Spectra were then collected on a Fluoromax-P spectrophotometer by excitation at 501 nm and scanning emission from 510 to 600 nm with excitation and emission slit width at 5 nm and an integration time of 1 s. All spectra were background subtracted from TGT reaction buffer and Normalized against the fluorescence intensity values of a sample containing an analogous concentration of PreQ1-TO (0.667 μM) in TGT reaction buffer.

T1 sequence (P0A847 whole entry, added parts left off): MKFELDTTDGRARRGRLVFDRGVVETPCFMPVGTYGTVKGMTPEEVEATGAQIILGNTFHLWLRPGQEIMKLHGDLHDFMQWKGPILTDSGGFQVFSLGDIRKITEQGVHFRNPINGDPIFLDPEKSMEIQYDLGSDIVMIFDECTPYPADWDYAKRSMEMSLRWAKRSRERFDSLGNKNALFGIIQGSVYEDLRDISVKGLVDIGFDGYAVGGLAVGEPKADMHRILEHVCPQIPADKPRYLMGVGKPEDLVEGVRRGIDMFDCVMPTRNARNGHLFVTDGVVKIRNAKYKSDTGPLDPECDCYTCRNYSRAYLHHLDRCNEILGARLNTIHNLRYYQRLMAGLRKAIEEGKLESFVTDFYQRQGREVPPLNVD
T2 sequence (P22629 25-183): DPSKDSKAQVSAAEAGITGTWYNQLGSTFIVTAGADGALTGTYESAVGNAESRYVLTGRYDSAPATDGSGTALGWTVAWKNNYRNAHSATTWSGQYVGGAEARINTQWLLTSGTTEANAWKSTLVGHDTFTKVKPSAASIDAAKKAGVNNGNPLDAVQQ
T3 sequence (P22629 25-183): as above

CN1/C(=C/C=C2C=C(/C=C/C3=[N+](CCCCCC(=O)NCCOCCOCCOCCNCc4c[nH]c5nc(N)[nH]c(=O)c45)c4ccccc4C3(C)C)CCC/2)C(C)(C)c2ccccc21.O=C[O-] [PreQ1-Cy7]
fluorescent labeling of mCherry-TAG transcript [1]: labeling of the transcript took place
staining of fixed, permeabilized CHO cells [2]: significantly greater staining of fixed cells

Nc1nc2[nH]cc(CNCCOCCOCCOCCNC(=O)CCCC[C@@H]3SC[C@@H]4NC(=O)N[C@@H]43)c2c(=O)[nH]1 [PreQ1-Biotin]
reaction time required for completion of TGT labeling of ECY-A1 ([3]; 37° C., other analogs 6 hour incubation): 24 h
streptavidin gel shift of ECY-A1 modified by TGT [4]: biotin remains functional as an affinity tag
RNA recovered in streptavidin pull-down [5]: single RNA band corresponding to transcript only when mCherry transcript contained the ECY-A 1 hairpin

CN1/C(=C/c2cc[n+](CCCCCC(=O)NCCOCCOCCOCCNCc3c[nH]c4nc(N)[nH]c(=O)c34)c3ccccc23)Sc2ccccc21.O=C[O-] [PreQ1-TO]
RNA substrate selectivity of incorporation ([3]; ECY-A1 compared with ECY-A1ΔC and ECY-X1 (FIG. 20B)): selectively incorporated into ECY-A1
incorporation of PreQ1-TO into alternative RNA hairpins ([3]; RNA hairpins ECY-A1ΔC and ECY-X1, with TGT, by LC/MS): unable to detect incorporation
fluorescence intensity with in vitro transcribed mCherry-TAG RNA ([6]; TGT present vs absent (FIG. 3B)): significant increase in fluorescence intensity
fluorescence turn-on with mCherry-TAGΔC transcript ([6]; in the presence of enzyme): negligible fluorescence turn-on
increase in TO fluorescence intensity upon covalent incorporation [7]: ~40 fold

Reference: patent US11267842B2, “Enzymatic modification of nucleic acids” (The Regents of the University of California, priority 2015, dated 2022)
